Data from the NIST ThermoML archive (doi:10.1016/j.jct.2011.06.007).
± gives the expanded uncertainty stated by the source.

Test: activity coefficient (dimensionless); of the first substance listed, at infinite dilution; xn = mol fraction of the nth substance listed
Details: 101 kPa, Liquid, Chromatography, x1 = 0

| activity coefficient (318.15 K) | activity coefficient (328.15 K) | activity coefficient (338.15 K) | activity coefficient (348.15 K) | activity coefficient (358.15 K) | activity coefficient (368.15 K) | Structure (SMILES) |
| --- | --- | --- | --- | --- | --- | --- |
| 65.7 ± 4.5 | 59.5 ± 4.1 | 53.8 ± 3.7 | 50.4 ± 3.5 | 44.9 ± 3.1 | 42.1 ± 2.9 | CCCCCCCCCC [decane] + CCCC[N+]1(C)CCCC1.N#C[B-](C#N)(C#N)C#N |
| 6.08 ± 0.41 | 5.94 ± 0.4 | 5.91 ± 0.4 | 5.82 ± 0.4 | 5.75 ± 0.39 | 5.68 ± 0.39 | CC(C)OC(C)C [diisopropyl ether] + CCCC[N+]1(C)CCCC1.N#C[B-](C#N)(C#N)C#N |
| 7.68 ± 0.52 | 7.31 ± 0.5 | 7.16 ± 0.49 | 7.03 ± 0.48 | 6.57 ± 0.45 | 6.57 ± 0.45 | C=CCCCC [hex-1-ene] + CCCC[N+]1(C)CCCC1.N#C[B-](C#N)(C#N)C#N |
| 2.37 ± 0.16 | 2.39 ± 0.16 | 2.46 ± 0.17 | 2.48 ± 0.17 | 2.52 ± 0.17 | 2.55 ± 0.17 | COC(C)(C)C [2-methoxy-2-methylpropane] + CCCC[N+]1(C)CCCC1.N#C[B-](C#N)(C#N)C#N |
| 1.88 ± 0.13 | 1.67 ± 0.11 | 1.55 ± 0.1 | 1.44 ± 0.09 | 1.33 ± 0.09 | 1.23 ± 0.08 | CCCCO [butan-1-ol] + CCCC[N+]1(C)CCCC1.N#C[B-](C#N)(C#N)C#N |
| 5.78 ± 0.39 | 5.65 ± 0.39 | 5.51 ± 0.38 | 5.42 ± 0.37 | 5.33 ± 0.36 | 5.26 ± 0.36 | CCCOCCC [dipropyl ether] + CCCC[N+]1(C)CCCC1.N#C[B-](C#N)(C#N)C#N |
| 14.9 ± 1 | 13.8 ± 0.9 | 13 ± 0.9 | 12.6 ± 0.9 | 11.8 ± 0.8 | 11.2 ± 0.8 | CCC(C)CC [3-methylpentane] + CCCC[N+]1(C)CCCC1.N#C[B-](C#N)(C#N)C#N |
| 5.58 ± 0.38 | 5.32 ± 0.36 | 5.3 ± 0.36 | 5.24 ± 0.36 | 5.01 ± 0.34 | 5.02 ± 0.34 | C=CCCC [1-pentene] + CCCC[N+]1(C)CCCC1.N#C[B-](C#N)(C#N)C#N |
| 15.7 ± 1.1 | 14 ± 1 | 13.2 ± 0.9 | 12.9 ± 0.9 | 12.1 ± 0.8 | 11.2 ± 0.8 | CCC(C)(C)C [2,2-dimethylbutane] + CCCC[N+]1(C)CCCC1.N#C[B-](C#N)(C#N)C#N |
| 0.692 ± 0.047 | 0.701 ± 0.047 | 0.721 ± 0.048 | 0.735 ± 0.049 | 0.738 ± 0.049 | 0.755 ± 0.05 | CCCC(C)=O [pentan-2-one] + CCCC[N+]1(C)CCCC1.N#C[B-](C#N)(C#N)C#N |
| 32.6 ± 2.2 | 30.2 ± 2.1 | 27.5 ± 1.9 | 26.2 ± 1.8 | 23.8 ± 1.6 | 22.5 ± 1.5 | CCCCCCCC [octane] + CCCC[N+]1(C)CCCC1.N#C[B-](C#N)(C#N)C#N |
| 1.5 ± 0.1 | 1.36 ± 0.09 | 1.27 ± 0.08 | 1.18 ± 0.08 | 1.1 ± 0.07 | 1.04 ± 0.07 | CCCO [propan-1-ol] + CCCC[N+]1(C)CCCC1.N#C[B-](C#N)(C#N)C#N |
| 46.2 ± 3.2 | 42.5 ± 2.9 | 38.2 ± 2.6 | 36.3 ± 2.5 | 32.6 ± 2.2 | 30.3 ± 2.1 | CCCCCCCCC [nonane] + CCCC[N+]1(C)CCCC1.N#C[B-](C#N)(C#N)C#N |
| 3.32 ± 0.23 | 3.34 ± 0.23 | 3.35 ± 0.23 | 3.36 ± 0.23 | 3.37 ± 0.23 | 3.39 ± 0.23 | CCC(C)(C)OC [2-methoxy-2-methylbutane] + CCCC[N+]1(C)CCCC1.N#C[B-](C#N)(C#N)C#N |
| 1.29 ± 0.08 | 1.17 ± 0.07 | 1.09 ± 0.07 | 1.02 ± 0.06 | 0.95 ± 0.06 | 0.894 ± 0.057 | CCO [ethanol] + CCCC[N+]1(C)CCCC1.N#C[B-](C#N)(C#N)C#N |
| 2.53 ± 0.17 | 2.56 ± 0.17 | 2.58 ± 0.18 | 2.63 ± 0.18 | 2.63 ± 0.18 | 2.68 ± 0.18 | C#CCCCC [1-hexyne] + CCCC[N+]1(C)CCCC1.N#C[B-](C#N)(C#N)C#N |
| 27.5 ± 1.9 | 25.4 ± 1.7 | 23.5 ± 1.6 | 22.5 ± 1.5 | 20.9 ± 1.4 | 20 ± 1.4 | CC(C)CC(C)(C)C [2,2,4-trimethylpentane] + CCCC[N+]1(C)CCCC1.N#C[B-](C#N)(C#N)C#N |

Second part, the compound before the results:

| Structure (SMILES) | activity coefficient (318.15 K) | activity coefficient (328.15 K) | activity coefficient (338.15 K) | activity coefficient (348.15 K) | activity coefficient (358.15 K) | activity coefficient (368.15 K) |
| --- | --- | --- | --- | --- | --- | --- |
| C1CCCCC1 [cyclohexane] + CCCC[N+]1(C)CCCC1.N#C[B-](C#N)(C#N)C#N | 8.42 ± 0.57 | 7.8 ± 0.53 | 7.45 ± 0.51 | 7.23 ± 0.49 | 6.75 ± 0.46 | 6.47 ± 0.44 |
| C=CCCCCCC [oct-1-ene] + CCCC[N+]1(C)CCCC1.N#C[B-](C#N)(C#N)C#N | 15.4 ± 1.1 | 14.6 ± 1 | 14.1 ± 1 | 13.4 ± 0.9 | 12.6 ± 0.9 | 12.5 ± 0.9 |
| c1ccccc1 [benzene] + CCCC[N+]1(C)CCCC1.N#C[B-](C#N)(C#N)C#N | 0.81 ± 0.052 | 0.816 ± 0.053 | 0.836 ± 0.054 | 0.855 ± 0.055 | 0.87 ± 0.056 | 0.887 ± 0.056 |
| C1CCCC1 [cyclopentane] + CCCC[N+]1(C)CCCC1.N#C[B-](C#N)(C#N)C#N | 5.87 ± 0.4 | 5.47 ± 0.37 | 5.27 ± 0.36 | 5.18 ± 0.35 | 4.88 ± 0.33 | 4.72 ± 0.32 |
| CO [methanol] + CCCC[N+]1(C)CCCC1.N#C[B-](C#N)(C#N)C#N | 0.991 ± 0.062 | 0.912 ± 0.058 | 0.861 ± 0.055 | 0.812 ± 0.053 | 0.753 ± 0.05 | 0.723 ± 0.048 |
| C1CCCCCCC1 [cyclooctane] + CCCC[N+]1(C)CCCC1.N#C[B-](C#N)(C#N)C#N | 13.5 ± 0.9 | 12.5 ± 0.9 | 11.6 ± 0.8 | 11.2 ± 0.8 | 10.3 ± 0.7 | 9.76 ± 0.67 |
| Cc1cccc(C)c1 [1,3-dimethylbenzene] + CCCC[N+]1(C)CCCC1.N#C[B-](C#N)(C#N)C#N | 1.54 ± 0.1 | 1.56 ± 0.1 | 1.59 ± 0.11 | 1.62 ± 0.11 | 1.64 ± 0.11 | 1.66 ± 0.11 |
| C=CCCCCC [1-heptene] + CCCC[N+]1(C)CCCC1.N#C[B-](C#N)(C#N)C#N | 10.7 ± 0.7 | 10.2 ± 0.7 | 10 ± 0.7 | 9.72 ± 0.66 | 9.09 ± 0.62 | 8.93 ± 0.61 |
| C1CCCCCC1 [cycloheptane] + CCCC[N+]1(C)CCCC1.N#C[B-](C#N)(C#N)C#N | 10.4 ± 0.7 | 9.7 ± 0.66 | 9.18 ± 0.63 | 8.85 ± 0.6 | 8.21 ± 0.56 | 7.78 ± 0.53 |
| CCOCC [diethyl ether] + CCCC[N+]1(C)CCCC1.N#C[B-](C#N)(C#N)C#N | 2.32 ± 0.16 | 2.33 ± 0.16 | 2.34 ± 0.16 | 2.36 ± 0.16 | 2.37 ± 0.16 | 2.39 ± 0.16 |
| Cc1ccccc1C [1,2-dimethylbenzene] + CCCC[N+]1(C)CCCC1.N#C[B-](C#N)(C#N)C#N | 1.34 ± 0.09 | 1.36 ± 0.09 | 1.39 ± 0.09 | 1.41 ± 0.09 | 1.43 ± 0.09 | 1.46 ± 0.1 |
| C=CCCCCCCCC [1-decene] + CCCC[N+]1(C)CCCC1.N#C[B-](C#N)(C#N)C#N | 29.7 ± 2 | 28.3 ± 1.9 | 27.1 ± 1.9 | 26.1 ± 1.8 | 23.5 ± 1.6 | 22.8 ± 1.6 |
| c1ccsc1 [thiophene] + CCCC[N+]1(C)CCCC1.N#C[B-](C#N)(C#N)C#N | 0.659 ± 0.045 | 0.663 ± 0.045 | 0.684 ± 0.046 | 0.702 ± 0.047 | 0.711 ± 0.047 | 0.734 ± 0.049 |
| O [water] + CCCC[N+]1(C)CCCC1.N#C[B-](C#N)(C#N)C#N | 2.15 ± 0.15 | 1.87 ± 0.13 | 1.73 ± 0.12 | 1.58 ± 0.1 | 1.39 ± 0.09 | 1.28 ± 0.08 |
| CC1CCCCC1 [methylcyclohexane] + CCCC[N+]1(C)CCCC1.N#C[B-](C#N)(C#N)C#N | 11.9 ± 0.8 | 11 ± 0.8 | 10.5 ± 0.7 | 10.1 ± 0.7 | 9.38 ± 0.64 | 8.94 ± 0.61 |
| C1=CCCCC1 [cyclohexene] + CCCC[N+]1(C)CCCC1.N#C[B-](C#N)(C#N)C#N | 4.09 ± 0.28 | 3.97 ± 0.27 | 3.93 ± 0.27 | 3.88 ± 0.26 | 3.73 ± 0.25 | 3.71 ± 0.25 |
| C1CCOC1 [tetrahydrofuran] + CCCC[N+]1(C)CCCC1.N#C[B-](C#N)(C#N)C#N | 0.61 ± 0.043 | 0.611 ± 0.043 | 0.639 ± 0.044 | 0.652 ± 0.045 | 0.661 ± 0.045 | 0.679 ± 0.046 |
| C#CCCCCCC [1-octyne] + CCCC[N+]1(C)CCCC1.N#C[B-](C#N)(C#N)C#N | 4.93 ± 0.34 | 4.9 ± 0.33 | 4.88 ± 0.33 | 4.85 ± 0.33 | 4.81 ± 0.33 | 4.78 ± 0.33 |
